What was measured:
[1] = target: Sigma non-opioid intracellular receptor 1 (Homo sapiens, UniProt Q99720); experiment: Binding affinity to sigma 1 receptor (unknown origin) assessed as dissociation constant by competitive binding assay
[2] = target: Sigma intracellular receptor 2 (Homo sapiens, UniProt Q5BJF2); experiment: Binding affinity to sigma 2 receptor (unknown origin) assessed as dissociation constant by competitive binding assay
[3] = target: T1, Trace amine-associated receptor 1 (Homo sapiens, UniProt Q96RJ0); experiment: Agonist activity at human TAAR1 stably expressed in HEK293 cells incubated for 30 mins by cAMP assay; type: functional, cell-based
T1 sequence (Q96RJ0 whole entry): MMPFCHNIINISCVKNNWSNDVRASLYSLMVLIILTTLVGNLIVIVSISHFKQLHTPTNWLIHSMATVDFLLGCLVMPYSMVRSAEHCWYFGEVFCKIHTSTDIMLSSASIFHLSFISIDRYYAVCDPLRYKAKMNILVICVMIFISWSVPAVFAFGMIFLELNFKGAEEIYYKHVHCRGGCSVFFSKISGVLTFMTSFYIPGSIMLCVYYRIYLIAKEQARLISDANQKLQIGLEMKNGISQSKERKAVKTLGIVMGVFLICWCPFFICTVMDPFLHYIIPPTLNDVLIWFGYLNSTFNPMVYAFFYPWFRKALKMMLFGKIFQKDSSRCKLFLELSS

[4] = target: Trace amine-associated receptor 1 (Rattus norvegicus, UniProt Q923Y9); experiment: Agonist activity at rat TAAR1 stably expressed in HEK293 cells incubated for 30 mins by cAMP assay; type: functional, cell-based
Chain of Trace amine-associated receptor 1 (Rattus norvegicus, UniProt Q923Y9) (Q923Y9 whole entry): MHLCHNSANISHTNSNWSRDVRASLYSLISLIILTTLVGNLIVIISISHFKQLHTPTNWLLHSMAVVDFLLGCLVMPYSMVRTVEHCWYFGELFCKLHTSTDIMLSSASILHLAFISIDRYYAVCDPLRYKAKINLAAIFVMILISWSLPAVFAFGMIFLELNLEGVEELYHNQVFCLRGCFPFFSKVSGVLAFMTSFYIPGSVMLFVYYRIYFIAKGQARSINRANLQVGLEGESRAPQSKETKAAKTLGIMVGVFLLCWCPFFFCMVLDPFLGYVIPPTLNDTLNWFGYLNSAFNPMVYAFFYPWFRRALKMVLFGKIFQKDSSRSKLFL

[5] = target: Trace amine-associated receptor 1 (Mus musculus, UniProt Q923Y8); experiment: Agonist activity at mouse TAAR1 stably expressed in HEK293 cells incubated for 30 mins by cAMP assay; type: functional, cell-based
Chain of Trace amine-associated receptor 1 (Mus musculus, UniProt Q923Y8) (Q923Y8 whole entry): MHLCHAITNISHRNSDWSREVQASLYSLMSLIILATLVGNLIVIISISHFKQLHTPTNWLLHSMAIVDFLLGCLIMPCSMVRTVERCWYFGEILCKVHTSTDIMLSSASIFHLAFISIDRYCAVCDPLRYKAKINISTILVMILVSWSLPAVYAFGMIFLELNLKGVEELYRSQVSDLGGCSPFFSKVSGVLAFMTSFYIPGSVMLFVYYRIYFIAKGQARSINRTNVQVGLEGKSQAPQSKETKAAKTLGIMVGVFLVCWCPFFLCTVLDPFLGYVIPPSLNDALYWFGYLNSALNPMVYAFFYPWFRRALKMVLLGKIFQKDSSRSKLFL

[6] = Acute toxicity in iv dosed mouse assessed as lethal dose incubated for 72 hrs; type: organism-based; conditions: in vivo
[7] = Acute toxicity in ip dosed mouse assessed as lethal dose incubated for 24 hrs; type: organism-based; conditions: in vivo
[8] = Acute toxicity in po dosed mouse assessed as lethal dose incubated for 72 hrs; type: organism-based; conditions: in vivo
[9] = Drug tolerance in sc dosed dog; type: toxicity, organism-based, Canis lupus familiaris; conditions: in vivo

Chain of Sigma non-opioid intracellular receptor 1 (Q99720 whole entry): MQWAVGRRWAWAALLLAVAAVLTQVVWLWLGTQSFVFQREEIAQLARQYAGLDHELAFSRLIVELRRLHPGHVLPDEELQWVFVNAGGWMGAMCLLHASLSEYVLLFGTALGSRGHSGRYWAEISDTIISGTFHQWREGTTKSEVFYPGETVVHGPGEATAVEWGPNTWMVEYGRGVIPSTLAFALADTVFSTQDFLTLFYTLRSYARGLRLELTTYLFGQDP
Chain of Sigma intracellular receptor 2 (Q5BJF2 whole entry): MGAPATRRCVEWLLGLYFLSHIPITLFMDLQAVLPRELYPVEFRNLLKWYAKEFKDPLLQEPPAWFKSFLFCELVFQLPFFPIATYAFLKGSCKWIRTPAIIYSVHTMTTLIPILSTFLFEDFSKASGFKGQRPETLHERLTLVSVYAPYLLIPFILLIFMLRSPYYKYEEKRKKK

CNCCc1ccc(O)cc1 gave a Kd [1] of 12.4 µM and a Kd [2] of 6.6 µM.

NCCc1ccc(O)cc1 [TYRAMINE] gave an EC50 [3] of 0.99 µM, an EC50 [4] of 0.03 µM and an EC50 [5] of 0.28 µM.

With COc1cc2c(c(O)c1OC)C(C)N(C)CC2 (centres undefined) the LD50 at 72 h [6] was 52.2 mg/kg, the LD50 at 24 h [7] was 115 mg/kg and the LD50 at 72 h [8] was 200 mg/kg. For the same compound, the Activity [9] was 50 mg/kg.
